Measurements published in patent US20240150293A1, “SPIROCYCLOHEXANE DERIVATIVES, PHARMACEUTICAL COMPOSITIONS CONTAINING THEM AND THEIR USES AS ANTI-APOPTOTIC INHIBITORS” (LES LABORATOIRES SERVIER, priority 2021, published 2024).
Like-named read-outs stand apart in the source and are kept apart here.

Experiments:
[1] = biological target: Cy5-labelled Mcl1 (amino acids 171-321) C286S protein (UniProtKB Q07820) (Homo sapiens (Human), UniProt Q07820, C286S); test: Inhibition of Mcl-1 by the fluorescence quenching assay (Example A, Method B); type: binding
Outline: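 Cy5-labelled Mcl1 171-321 C286S (1 nM) quenched by TQ5WS-labelled PUMA peptide (10, 20 or 400 nM); displacement raises fluorescence (Ex 620/Em 680 nm). Buffer 10 mM HEPES, 150 mM NaCl, 0.05% Tween 20, pH 7.4, 5% DMSO; 2 h at room temperature, 11-point curves, IC50 converted to Ki (cKi/eKi).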

[2] = tested on: H929 multiple myeloma tumor line; test: In vitro cytotoxicity, MTT assay (Example B, Method A); type: cell-based; conditions: H929 cells, 48 hours exposure, read-out: C50
Procedure: The cytotoxicity studies were carried out on the H929 multiple myeloma tumor line.
The cells are distributed onto microplates and exposed to the test compounds for 48 hours. The cell viability is then quantified by a colorimetric assay, the Microculture Tetrazolium Assay (Carmichael et al, Cancer Res. 1987, 47, 939-942).
The results are expressed in C50 which means concentration corresponding to […] of effect/inhibition.

Chain of Cy5-labelled Mcl1 (amino acids 171-321) C286S protein (Q07820 171-321 C286S): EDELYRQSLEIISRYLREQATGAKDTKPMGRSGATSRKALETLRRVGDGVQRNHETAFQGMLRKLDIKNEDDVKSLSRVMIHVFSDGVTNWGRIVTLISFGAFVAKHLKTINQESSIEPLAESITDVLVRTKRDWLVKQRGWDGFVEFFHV

SMILES | Ki [1] [nM] | IC50 ([2]; Homo sapiens, NCI-H929, 48 h) [nM] | IC50 [2] [nM]
CC(=O)c1cc(C)c2c(c1)[C@]1(CC[C@@](Nc3cccc(Cl)c3)(C(=O)O)CC1)C(C[C@@H](C)COc1ccnc3c1[C@H](C)CCC3)=C2 [Example 756, (1r,4R)-6′-acetyl-4-(3-chloroanilino)-4′-methyl-2′-[(2R)-2-methyl-3-{[(5R)-5-methyl-5,6,7,8-tetrahydroquinolin-4-yl]oxy}propyl]spiro[cyclohexane-1,1′-indene]-4-carboxylic acid] | 1.01 | 62 | –
C[C@@H](COc1ccnc2c1[C@H](C)CCC2)CC1Cc2c(Cl)cccc2[C@]12CC[C@@](Nc1cccc(Cl)c1)(C(=O)O)CC2 (single isomer, unassigned) [Example 740] | 0.827 | – | 45.9
C[C@@H](COc1ccnc2c1[C@@H](C)CCC2)C[C@H]1Cc2ccccc2[C@]12CC[C@@](Cc1cccc(Cl)c1)(C(=O)O)CC2 [Example 719, (1s,2′S,4R)-4-[(3-chlorophenyl)methyl]-2′-[(2R)-2-methyl-3-{[(5S)-5-methyl-5,6,7,8-tetrahydroquinolin-4-yl]oxy}propyl]-2′,3′-dihydrospiro[cyclohexane-1,1′-indene]-4-carboxylic acid] | 1450 | 13200 | –
O=C(O)[C@]1(Nc2cccc(Cl)c2)CC[C@@]2(CC1)c1ccccc1CC2CC(COc1ccnc2ccsc12)Cc1ccccc1 (single isomer, unassigned) [Example 561, (1r,4r)-2′-{2-benzyl-3-[(thieno[3,2-b]pyridin-7-yl)oxy]propyl}-4-(3-chloroanilino)-2′,3′-dihydrospiro[cyclohexane-1,1′-indene]-4-carboxylic acid] | 57.1 | – | 12300
C[C@@H](COc1ccnc2ccsc12)CC1=Cc2ccccc2[C@]12CC[C@@](Nc1cccc(Cl)c1)(C(=O)O)CC2 [Example 589, (1r,4R)-4-(3-chloroanilino)-2′-{(2R)-2-methyl-3-[(thieno[3,2-b]pyridin-7-yl)oxy]propyl}spiro[cyclohexane-1,1′-indene]-4-carboxylic acid] | 8.39 | 694 | –
C[C@@H](COc1ccnc2c1[C@@H](C)C(F)(F)CC2)C[C@H]1Cc2ccccc2[C@]12CC[C@@](Nc1cccc(Cl)c1)(C(=O)O)CC2 [Example 701, (1r,2′S,4S)-4-(3-chloroanilino)-2′-[(2R)-3-{[(5R)-6,6-difluoro-5-methyl-5,6,7,8-tetrahydroquinolin-4-yl]oxy}-2-methylpropyl]-2′,3′-dihydrospiro[cyclohexane-1,1′-indene]-4-carboxylic acid] | 28.5 | 1560 | –
CCCC#C[C@@H](COc1ccnc2ccsc12)CC1=Cc2ccccc2[C@]12CC[C@@](Nc1cccc(Cl)c1)(C(=O)O)CC2 [Example 565, (1r,4S)-4-(3-chloroanilino)-2′-[(2S)-2-{[(thieno[3,2-b]pyridin-7-yl)oxy]methyl}hept-3-yn-1-yl]spiro[cyclohexane-1,1′-indene]-4-carboxylic acid] | 10.8 | 2390 | –
C[C@@H](COc1ccnc2c1[C@H](C)CCC2)CC1=Cc2c(Cl)cccc2[C@]12CC[C@@](Nc1cccc(Cl)c1)(C(=O)O)CC2 [Example 739, (1r,4R)-4′-chloro-4-(3-chloroanilino)-2′-[(2R)-2-methyl-3-{[(5R)-5-methyl-5,6,7,8-tetrahydroquinolin-4-yl]oxy}propyl]spiro[cyclohexane-1,1′-indene]-4-carboxylic acid] | 1.5 | 87.2 | –
C[C@@H](COc1ccnc2c1[C@H](C)CCC2)CC1Cc2c(F)cccc2[C@]12CC[C@@](Nc1cccc(Cl)c1)(C(=O)O)CC2 (single isomer, unassigned) [Example 743] | 0.463 | – | 110
CO[C@H]1CCCc2nccc(OC[C@H](C)C[C@H]3Cc4ccccc4[C@]34CC[C@@](Nc3cccc(Cl)c3)(C(=O)O)CC4)c21 [Example 671, (1r,2′S,4S)-4-(3-chloroanilino)-2′-[(2R)-3-{[(5S)-5-methoxy-5,6,7,8-tetrahydroquinolin-4-yl]oxy}-2-methylpropyl]-2′,3′-dihydrospiro[cyclohexane-1,1′-indene]-4-carboxylic acid] | 39.3 | 2560 | –
C[C@@H]1CCCc2nccc(OCC(CC3Cc4ccccc4[C@]34CC[C@@](Nc3cccc(Cl)c3)(C(=O)O)CC4)C(F)F)c21 (single isomer, unassigned) [Example 521] | 32.3 | – | 986
CC[C@H]1CCCc2nccc(OC[C@H](C)C[C@H]3Cc4ccccc4[C@]34CC[C@@](Nc3cccc(Cl)c3)(C(=O)O)CC4)c21 [Example 656, (1r,2′S,4S)-4-(3-chloroanilino)-2′-[(2R)-3-{[(5S)-5-ethyl-5,6,7,8-tetrahydroquinolin-4-yl]oxy}-2-methylpropyl]-2′,3′-dihydrospiro[cyclohexane-1,1′-indene]-4-carboxylic acid] | 62.9 | 2910 | –
C[C@@H](COc1ccnc2c1[C@H](C)C(F)(F)CC2)C[C@H]1Cc2ccccc2[C@]12CC[C@@](Nc1cccc(Cl)c1)(C(=O)O)CC2 [Example 700, (1r,2′S,4S)-4-(3-chloroanilino)-2′-[(2R)-3-{[(5S)-6,6-difluoro-5-methyl-5,6,7,8-tetrahydroquinolin-4-yl]oxy}-2-methylpropyl]-2′,3′-dihydrospiro[cyclohexane-1,1′-indene]-4-carboxylic acid] | 5.09 | 330 | –
C[C@@H](COc1ccnc2c1[C@H](C)CCC2)CC1Cc2c(Cl)cccc2[C@]12CC[C@@](Nc1cccc(Cl)c1)(C(=O)O)CC2 (single isomer, unassigned) [Example 741] | 1.58 | – | 132
C[C@@H](COc1ccnc2c1[C@@H](C)CCC2)C[C@H]1Cc2ccc(O)cc2[C@]12CC[C@@](Nc1cccc(Cl)c1)(C(=O)O)CC2 [Example 780, (1r,2′S,4S)-4-(3-chloroanilino)-6′-hydroxy-2′-[(2R)-2-methyl-3-{[(5S)-5-methyl-5,6,7,8-tetrahydroquinolin-4-yl]oxy}propyl]-2′,3′-dihydrospiro[cyclohexane-1,1′-indene]-4-carboxylic acid] | 8.89 | 641 | –
C[C@@H](COc1ccnc2c1[C@H](CC(F)(F)F)CCC2)C[C@H]1Cc2ccccc2[C@]12CC[C@@](Nc1cccc(Cl)c1)(C(=O)O)CC2 [Example 695, (1r,2′S,4S)-4-(3-chloroanilino)-2′-[(2R)-2-methyl-3-{[(5S)-5-(2,2,2-trifluoroethyl)-5,6,7,8-tetrahydroquinolin-4-yl]oxy}propyl]-2′,3′-dihydrospiro[cyclohexane-1,1′-indene]-4-carboxylic acid] | 29.6 | 3240 | –
CC(O)c1ccc2c(c1)[C@]1(CC[C@@](Nc3cccc(Cl)c3)(C(=O)O)CC1)C(C[C@@H](C)COc1ccnc3c1[C@H](C)CCC3)=C2 (stereo partly drawn) [Example 857, (1r,4R)-4-(3-chloroanilino)-6′-(1-hydroxyethyl)-2′-[(2R)-2-methyl-3-{[(5R)-5-methyl-5,6,7,8-tetrahydroquinolin-4-yl]oxy}propyl]spiro[cyclohexane-1,1′-indene]-4-carboxylic acid] | 0.169 | 143 | –
CC[C@@H](COc1ccncc1)C[C@H]1Cc2ccccc2[C@]12CC[C@@](Nc1cccc(Cl)c1)(C(=O)O)CC2 [Example 544, (1r,2′S,4S)-4-(3-chloroanilino)-2′-[(2R)-2-{[(pyridin-4-yl)oxy]methyl}butyl]-2′,3′-dihydrospiro[cyclohexane-1,1′-indene]-4-carboxylic acid] | 22.4 | 8320 | –
C[C@@H](COc1ccnc2ccn(C)c12)C[C@H]1Cc2ccccc2[C@]12CC[C@@](Nc1cccc(Cl)c1)(C(=O)O)CC2 [Example 619, (1r,2′S,4S)-4-(3-chloroanilino)-2′-{(2R)-2-methyl-3-[(1-methyl-1H-pyrrolo[3,2-b]pyridin-7-yl)oxy]propyl}-2′,3′-dihydrospiro[cyclohexane-1,1′-indene]-4-carboxylic acid] | 9.28 | 1360 | –
C[C@@H]1CCCc2nccc(OCC(CC3Cc4ccccc4[C@]34CC[C@@](Nc3cccc(Cl)c3)(C(=O)O)CC4)C(F)F)c21 (single isomer, unassigned) [Example 520] | 91.4 | – | 10400
C[C@@H](COc1ccnc2c1[C@H](C)CCC2)CC1Cc2c(F)cccc2[C@]12CC[C@@](Nc1cccc(Cl)c1)(C(=O)O)CC2 (single isomer, unassigned) [Example 742] | 1.23 | 59.6 | –
C[C@@H](COc1ccnc2c1[C@H](C)CCC2)C[C@H]1Cc2ccccc2[C@]12CC[C@@](Nc1cccc(Cl)c1F)(C(=O)O)CC2 [Example 706, (1r,2′S,4S)-4-(3-chloro-2-fluoroanilino)-2′-[(2R)-2-methyl-3-{[(5R)-5-methyl-5,6,7,8-tetrahydroquinolin-4-yl]oxy}propyl]-2′,3′-dihydrospiro[cyclohexane-1,1′-indene]-4-carboxylic acid] | 0.901 | 93.9 | –
O=C(O)[C@]1(Nc2cccc(Cl)c2)CC[C@]2(CC1)C(CC(COc1ccnc3ccsc13)Cc1ccccc1)=Cc1ccccc12 (single isomer, unassigned) [Example 559, (1r,4r)-2′-{2-benzyl-3-[(thieno[3,2-b]pyridin-7-yl)oxy]propyl}-4-(3-chloroanilino)spiro[cyclohexane-1,1′-indene]-4-carboxylic acid] | 73 | 30000 | –
